Where two headings read alike, the source gives them in different places.
How the values were obtained:
USP7 = USP7 (Homo sapiens, UniProt Q93009); experiment: Ub-Rho cleavage assay; type: biochemical; conditions: Ub-Rho substrate, recombinant USP7; read-out: Ub (Rho) USP7.1 (IC50)
Protocol: All fluorescence measurements were performed on a Molecular Devices FlexStation3 with excitation at 480 nm and emission 540 nm, PMT Gain: Medium, Flash Number: 10. […] Assay buffer for all measurements was 50 mM HEPES, 100 mM NaCl, 0.5 mM EDTA, 1 mM TCEP, 0.1 mg/ml BSA, 0.01% Tween-20, pH 7.8. […] Serial dilutions were made with a Mosquito HTS (SPT Labtech) nanoliter liquid handler. 200 nL of each compound in duplicate or DMSO control were transferred to the assay plate. The first two columns served as positive controls. 9.8 μl per well of USP7 working solution was added to the assay plate. Compound+Protein was incubated for 25 min at 25° C. 10 uL of Ub-Rho substrate was added per well and incubated for an additional 15 min at 25° C. Fluorescence was then measured. Percent response relative to DMSO controls was calculated in GraphPad or Scinamic, and the data was fitted to a non-linear regression to determine IC50 values.

USP7 CD + UBL 1-5 = target: T1, USP7 CD + UBL 1-5 (Homo sapiens, UniProt Q93009); experiment: Surface plasmon resonance assay (SPR); type: binding
T1 construct: USP7 CD +
Protocol: The surface plasmon resonance experiments were performed using a Cytiva (formerly GE Healthcare) Biacore 8K equipped with a Series S Sensor Chip SA. The ligands were immobilized via a biotin-modified biotin acceptor peptide. USP7 Ligands were diluted in running buffer (HBS-P+2% DMSO; 10 mM HEPES, pH 7.4, 150 mM NaCl, 1 mM DTT, 0.05% P20, 2% DMSO) to 100 μg/mL and injected at […] until a density between 500-10,000 RU was reached on flow-cell two of each channel, and flow cell one was left blank to serve as a reference surface. Both surfaces were washed until a stable baseline was achieved then 30 startup cycles to condition the surface. To collect kinetic and steady-state binding data, the small molecule analytes were prepared in three-fold dilution series in HBS-P+2% DMSO running buffer. Analytes were injected over both flow cells at a flow rate of […] at 25° C. The complex was allowed to associate for 60 seconds and dissociate for 300 seconds. Data were collected at 10 Hz. The data were fit to a simple 1:1 interaction model global data analysis within Cytiva Biacore Insight Evaluation Software.

[1] = steady-state KD, read-out: SPR USP7 CD + UBL 1-5 (KD_ss)

Sequence of USP7 (Q93009 whole entry): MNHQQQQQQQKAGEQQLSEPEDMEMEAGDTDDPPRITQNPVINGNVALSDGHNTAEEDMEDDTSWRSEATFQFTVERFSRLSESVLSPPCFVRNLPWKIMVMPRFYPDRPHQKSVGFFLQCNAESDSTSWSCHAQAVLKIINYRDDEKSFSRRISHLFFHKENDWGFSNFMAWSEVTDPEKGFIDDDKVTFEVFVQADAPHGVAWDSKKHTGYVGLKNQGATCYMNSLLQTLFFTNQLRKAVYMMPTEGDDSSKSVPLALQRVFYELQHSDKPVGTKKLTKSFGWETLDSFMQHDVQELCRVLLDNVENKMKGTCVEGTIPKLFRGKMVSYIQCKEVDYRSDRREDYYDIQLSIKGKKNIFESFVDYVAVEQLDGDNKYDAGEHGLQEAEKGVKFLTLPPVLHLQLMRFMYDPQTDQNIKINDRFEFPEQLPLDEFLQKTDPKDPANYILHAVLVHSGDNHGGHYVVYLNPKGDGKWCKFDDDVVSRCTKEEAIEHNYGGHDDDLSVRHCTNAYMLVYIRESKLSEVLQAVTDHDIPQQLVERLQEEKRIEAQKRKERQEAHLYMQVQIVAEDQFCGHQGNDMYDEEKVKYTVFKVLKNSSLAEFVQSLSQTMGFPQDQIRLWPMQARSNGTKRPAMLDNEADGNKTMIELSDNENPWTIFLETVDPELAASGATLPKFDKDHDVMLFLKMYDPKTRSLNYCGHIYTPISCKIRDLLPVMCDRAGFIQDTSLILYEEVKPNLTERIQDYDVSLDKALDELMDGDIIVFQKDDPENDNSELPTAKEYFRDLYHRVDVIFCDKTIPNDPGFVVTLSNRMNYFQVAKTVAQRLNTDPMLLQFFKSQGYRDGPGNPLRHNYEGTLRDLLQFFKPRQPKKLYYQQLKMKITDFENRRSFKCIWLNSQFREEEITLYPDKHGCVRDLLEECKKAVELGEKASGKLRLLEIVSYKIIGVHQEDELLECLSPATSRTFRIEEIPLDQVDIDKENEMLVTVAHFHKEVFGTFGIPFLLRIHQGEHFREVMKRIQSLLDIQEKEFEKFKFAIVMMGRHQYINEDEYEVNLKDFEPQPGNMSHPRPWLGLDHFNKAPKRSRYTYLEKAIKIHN
T1 sequence (Q93009 208-1102 limits assumed): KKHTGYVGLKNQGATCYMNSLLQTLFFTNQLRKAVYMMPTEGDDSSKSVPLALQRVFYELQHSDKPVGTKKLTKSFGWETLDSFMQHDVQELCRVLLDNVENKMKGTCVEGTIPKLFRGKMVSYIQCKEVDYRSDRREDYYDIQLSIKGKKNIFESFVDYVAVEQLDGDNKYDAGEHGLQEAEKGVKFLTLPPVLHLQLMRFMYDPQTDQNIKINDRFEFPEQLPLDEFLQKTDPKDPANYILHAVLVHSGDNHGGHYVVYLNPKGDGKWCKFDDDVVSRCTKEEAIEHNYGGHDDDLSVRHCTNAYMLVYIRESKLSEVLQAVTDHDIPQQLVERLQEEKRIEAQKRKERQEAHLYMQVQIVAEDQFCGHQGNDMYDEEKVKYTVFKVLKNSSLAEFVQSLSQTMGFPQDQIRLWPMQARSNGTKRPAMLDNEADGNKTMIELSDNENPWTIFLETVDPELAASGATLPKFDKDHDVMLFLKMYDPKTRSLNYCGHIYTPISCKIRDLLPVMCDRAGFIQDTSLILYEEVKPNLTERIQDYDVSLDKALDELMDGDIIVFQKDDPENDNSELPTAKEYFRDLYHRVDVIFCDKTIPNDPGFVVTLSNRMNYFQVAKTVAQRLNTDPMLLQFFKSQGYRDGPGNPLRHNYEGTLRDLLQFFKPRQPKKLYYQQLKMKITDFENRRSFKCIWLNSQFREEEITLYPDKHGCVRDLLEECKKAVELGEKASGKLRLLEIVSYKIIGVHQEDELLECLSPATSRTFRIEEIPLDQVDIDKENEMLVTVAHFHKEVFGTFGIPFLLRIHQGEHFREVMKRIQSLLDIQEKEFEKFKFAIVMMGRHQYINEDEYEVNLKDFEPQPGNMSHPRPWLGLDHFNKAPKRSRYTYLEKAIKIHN

IC50 (USP7)	Kd (USP7 CD + UBL 1-5; [1])	Kd (USP7 CD + UBL 1-5; kinetic KD, read-out: SPR USP7 CD + UBL 1-5 (KD_kinetic))	Structure (SMILES)
> 100 µM	1 to 100 µM	–	CN1CCCn2nc(C(=O)Nc3nc4ccc(NS(=O)(=O)c5cn6ccccc6n5)cc4s3)cc2C1 [U110]
> 100 µM	1 to 100 µM	–	CN1CCCn2nc(C(=O)Nc3nc4ccc(NS(=O)(=O)c5nnc[nH]5)cc4s3)cc2C1 [U116]
> 100 µM	> 100 µM	–	CN1CCCn2nc(C(=O)Nc3nc4ccc(NCc5c[nH]cn5)cc4s3)cc2C1 [U114]
1 to 100 µM	> 100 µM	–	CN1CCCn2nc(C(=O)Nc3nc4ccc(NS(=O)(=O)c5cccs5)cc4s3)nc2C1 [U124]
> 100 µM	> 100 µM	–	CN1CCC(C(=O)Nc2nc3ccc(NS(=O)(=O)c4ccc5c(c4)CC(=O)N5C)cc3s2)CC1 [U72]
> 100 µM	1 to 100 µM	–	CN1CCCn2nc(C(=O)Nc3nc4ccc(NS(=O)(=O)c5nn6ccccc6c5Cl)cc4s3)cc2C1 [U121]
> 100 µM	1 to 100 µM	–	C#CCCN1CCCn2nc(C(=O)Nc3nc4ccc(NS(=O)(=O)c5cccs5)cc4s3)cc2C1 [U119]
1 to 100 µM	1 to 100 µM	–	CCc1c(-c2ccc(C(=O)NCCCNC(=O)CCNC(=O)OC(C)(C)C)nc2)cnc(N)c1-c1ccc(O)cc1 [U53]
1 to 100 µM	1 to 100 µM	1 to 100 µM	CCc1c(-c2ccc3[nH]ncc3c2)cnc(N)c1-c1ccc(O)cc1 [U8]
1 to 100 µM	1 to 100 µM	–	C[C@H](CC(=O)N1CCC(O)(Cn2cnc3cc(Cl)ccc3c2=O)CC1)c1ccccc1 [U4]
1 to 100 µM	1 to 100 µM	–	Cn1nc2c(=O)n(CC3(O)CCN(C(=O)C[C@H](c4ccccc4)C(F)(F)F)CC3)cnc2c1Br [U38]
< 1 µM	< 1 µM	–	Cc1cc(Cl)cc(-c2ccnc3cc(CN4C(=O)CCC4=O)sc23)c1CC1CCN(C(=O)CN)CC1 [U22]
1 to 100 µM	1 to 100 µM	–	CCc1c(-c2ccc(C(=O)NCCCNC(=O)CCCCCNC(=O)OC(C)(C)C)nc2)cnc(N)c1-c1ccc(O)cc1 [U50]
1 to 100 µM	1 to 100 µM	–	CCc1c(-c2ccc(C(=O)NCCCNC(=O)CCOCCOCCNC(=O)OC(C)(C)C)nc2)cnc(N)c1-c1ccc(O)cc1 [U56]
> 100 µM	1 to 100 µM	–	Cn1ccc(C(=O)Nc2nc3ccc(NS(=O)(=O)c4cccs4)cc3s2)n1 [U107]
> 100 µM	1 to 100 µM	–	Cc1ccsc1S(=O)(=O)Nc1ccc2nc(NC(=O)C3CCN(C)CC3)sc2c1 [U81]

Reference: patent US20240358842A1, “PROTEIN STABILIZING COMPOUNDS CONTAINING USP7 LIGANDS” (Stablix, Inc., priority 2021, published 2024)
